Active and inactive are the calls of the source. The calls are words filed in the database; no cut-off is given here.
Assays:
[1] = Protein binding in plasma of parkinson's disease patients; format: ADME, cell-free; settings: human, read-out: PPB
Homo sapiens [2] = species on record: Homo sapiens; assay: Chaperone activity at GALNS p.A393S mutant in mucopolysaccharidosis IVA patient-derived fibroblasts GM00958 assessed as enzyme activity using 4MUGPS as substrate at 0.001 to 10 uM incubated for 48 hrs by fluorescence assay
Homo sapiens [3] = species on record: Homo sapiens; assay: (§1) Chaperone activity at GALNS p.R61W/p.W405_T406 deletion mutant in mucopolysaccharidosis patient-derived fibroblasts GM01361 assessed as reduction in lysosomal mass by measuring mean fluorescence intensity at 0.1 uM incubated for 36 hrs by deep red Lysotracker based flow cytometric analysis (reference value: 48.3 +/- 7.7%); parameters: scale not given: the % may be the effect or the level left
Homo sapiens [4] = species on record: Homo sapiens; assay: (§2) Chaperone activity at GALNS p.R386C/p.F285 deletion mutant in mucopolysaccharidosis IVA patient-derived fibroblasts GM00593 assessed as reduction in lysosomal mass by measuring mean fluorescence intensity at 1 uM incubated for 36 hrs by deep red Lysotracker based flow cytometric analysis (reference value: 61.8 +/- 8.4%); parameters: scale not given: the % may be the effect or the level left
Homo sapiens [5] = species on record: Homo sapiens; assay: as §2, with “at 10” for “at 1”; parameters: scale not given: the % may be the effect or the level left
[6] = Total plasma concentration in parkinson's disease patients; format: ADME, cell-free; settings: human
Homo sapiens [7] = species on record: Homo sapiens; assay: Chaperone activity at GALNS p.R61W/p.W405_T406 deletion mutant in mucopolysaccharidosis IVA patient-derived fibroblasts GM01361 assessed as fold increase in enzyme activity using 4MUGPS as substrate at 0.1 uM incubated for 48 hrs by fluorescence assay relative to control
[8] = target: T1, N-acetylgalactosamine-6-sulfatase (Homo sapiens) (UniProt P34059); assay: Chaperone activity at GALNS in human fibroblasts assessed as change in lysosomal mass at 0.01 to 10 uM incubated for 36 hrs by deep red Lysotracker based flow cytometric analysis
T1 sequence (whole entry): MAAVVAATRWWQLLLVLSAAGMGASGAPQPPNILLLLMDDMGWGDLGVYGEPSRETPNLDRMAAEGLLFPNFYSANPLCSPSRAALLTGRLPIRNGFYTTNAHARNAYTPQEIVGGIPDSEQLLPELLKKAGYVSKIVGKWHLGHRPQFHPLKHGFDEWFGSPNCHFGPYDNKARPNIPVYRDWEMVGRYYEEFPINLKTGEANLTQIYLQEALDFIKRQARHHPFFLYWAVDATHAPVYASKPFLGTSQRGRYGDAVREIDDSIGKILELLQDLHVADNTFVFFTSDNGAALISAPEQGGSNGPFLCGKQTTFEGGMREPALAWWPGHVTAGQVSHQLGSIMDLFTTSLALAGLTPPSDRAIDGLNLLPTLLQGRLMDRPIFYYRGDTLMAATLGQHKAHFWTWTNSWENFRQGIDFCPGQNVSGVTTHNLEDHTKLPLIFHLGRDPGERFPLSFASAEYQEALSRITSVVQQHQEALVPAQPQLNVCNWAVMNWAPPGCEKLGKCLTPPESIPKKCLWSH

[9] = target: T1, N-acetylgalactosamine-6-sulfatase (Homo sapiens); assay: Chaperone activity at recombinant human GALNS expressed in HEK293 cells assessed as fold increase in extracellular enzyme activity using 4MUGPS as substrate at 1 uM incubated for 48 hrs by fluorescence assay relative to control; format: cell-based
[10] = target: T1, N-acetylgalactosamine-6-sulfatase (Homo sapiens); assay: Inhibition of recombinant human GALNS expressed in Pichia pastoris at 0.001 to 50 uM using 4MUGPS as substrate incubated for 18 hrs by fluorescence assay relative to control
Homo sapiens [11] = species on record: Homo sapiens; assay: Chaperone activity at GALNS p.R61W/p.W405_T406 deletion mutant in mucopolysaccharidosis IVA patient-derived fibroblasts GM01361 assessed as enzyme activity using 4MUGPS as substrate at 1 to 10 uM incubated for 48 hrs by fluorescence assay
[12] = target: T1, N-acetylgalactosamine-6-sulfatase (Homo sapiens); assay: Chaperone activity at recombinant human GALNS expressed in HEK293 cells assessed as fold increase in extracellular enzyme activity using 4MUGPS as substrate at 10 uM incubated for 48 hrs by fluorescence assay relative to control; format: cell-based
Homo sapiens [13] = species on record: Homo sapiens; assay: as §1, with “mucopolysaccharidosis IVA” for “mucopolysaccharidosis”, “0.01” for “0.1”; parameters: scale not given: the % may be the effect or the level left
Homo sapiens [14] = species on record: Homo sapiens; assay: Chaperone activity at GALNS p.R386C/p.F285 deletion mutant in mucopolysaccharidosis IVA patient-derived fibroblasts GM00593 assessed as fold increase in enzyme activity using 4MUGPS as substrate at 10 uM incubated for 48 hrs by fluorescence assay relative to control

CC(C)C[C@H]1C(=O)N2CCC[C@H]2[C@]2(O)O[C@](NC(=O)[C@@H]3C=C4c5cccc6[nH]c(Br)c(c56)C[C@H]4N(C)C3)(C(C)C)C(=O)N12 [BROMOCRIPTINE]
fraction unbound [1]: 0.04 to 0.1
Activity (Homo sapiens [2]): inactive
Activity (Homo sapiens [3]): 7.3%
Activity (Homo sapiens [4]): 18.2%
Activity (Homo sapiens [5]): 10.5%
concentration [6]: 10 to 250 nM
fold change (FC) (Homo sapiens [7]): 1.5
Activity [8]: inactive
fold change (FC) [9]: 1.36
inhibition [10]: 30%
Activity (Homo sapiens [11]): inactive
fold change (FC) [12]: 1.48
Activity (Homo sapiens [13]): 11.7%
fold change (FC) (Homo sapiens [14]): 1.52

From ChEMBL document CHEMBL4622962, “Bromocriptine as a Novel Pharmacological Chaperone for Mucopolysaccharidosis IV A” (ACS Med Chem Lett, 2020)
